Measured values published in PMC5590105 (Chemical communications (Cambridge, England), 2017).

Target: T1, heparanase (Homo sapiens, UniProt Q9Y251)
T1 sequence (Q9Y251 158-543 limits assumed): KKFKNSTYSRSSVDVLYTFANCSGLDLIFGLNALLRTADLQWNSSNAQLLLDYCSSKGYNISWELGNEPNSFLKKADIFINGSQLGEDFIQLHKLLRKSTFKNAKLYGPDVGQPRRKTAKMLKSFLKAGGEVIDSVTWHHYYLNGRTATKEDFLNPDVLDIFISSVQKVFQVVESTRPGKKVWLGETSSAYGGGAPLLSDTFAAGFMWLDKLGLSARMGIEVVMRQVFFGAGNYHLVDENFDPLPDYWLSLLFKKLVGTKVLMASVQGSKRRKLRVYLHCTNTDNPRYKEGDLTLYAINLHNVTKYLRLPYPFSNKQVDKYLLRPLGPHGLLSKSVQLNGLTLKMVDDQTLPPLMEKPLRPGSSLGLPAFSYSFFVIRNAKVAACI
T1 sequence (Q9Y251 36-109 limits assumed): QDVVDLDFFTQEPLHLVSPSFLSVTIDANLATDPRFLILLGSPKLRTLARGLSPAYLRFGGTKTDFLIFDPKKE
Experiment: colorimetric WST-1 assay of cleavage by heparanase
Format: biochemical
Conditions: WST-1 colorimetric assay, over 21 h

hydrolysis by heparanase: readily cleaved by heparanase
Compound: CO[C@H]1O[C@H](COS(=O)(=O)O)[C@@H](O[C@@H]2O[C@@H](C(=O)O)[C@@H](O[C@H]3O[C@H](COS(=O)(=O)O)[C@@H](O[C@@H]4O[C@H](C(=O)O)[C@@H](O[C@H]5O[C@H](COS(=O)(=O)O)[C@@H](O)[C@H](O)[C@H]5NS(=O)(=O)O)[C@H](O)[C@H]4O)[C@H](OS(=O)(=O)O)[C@H]3NS(=O)(=O)O)[C@H](O)[C@H]2OS(=O)(=O)O)[C@H](O)[C@H]1NS(=O)(=O)O [Fondaparinux]
